Test results reported in patent publication US7807162B2, “Single domain VHH antibodies against von Willebrand factor” (Ablynx N.V., priority 2005, dated 2010).
Values joined by “and” are separate entries in the source; they are usually repeats but may differ in a detail not shown here. Equal entries are not always repeated.

Assays:
[1] = system: platelet adhesion to endothelial cell-derived ULvWF; experiment: Platelet string formation on ULvWF of histamine-stimulated endothelial cells (perfusion); type: cell-based, human; conditions: 0.2, 2 and 10 μg/ml; platelets in buffer or TTP plasma; 2.5 dyn/cm2, 4 minutes
Method: Endothelial cells were obtained from human umbilical cord veins by the method of Maruyama (Z. Zellforsch. Mikrosk. A4nat. 60:69; 1963). Endothelial cells were activated with 100 μM histamine (Sigma-Aldrich, St Louis, Mo.) for 15 minutes at room temperature before the perfusion experiments.
Blood was drawn from healthy volunteers who denied ingestion of aspirin or other nonsteroidal anti-inflammatory drugs (NSAIDs) for the preceding 10 days into one-tenth volume 3.4% sodium citrate. Platelet-rich plasma (PRP) was prepared from whole blood by centrifugation (10 minutes at 200 g at room temperature). […] The platelet pellet was resuspended in HEPES (N-2-hydroxyethylpiperazine-N′-2-ethanesulfonic acid)-Tyrode buffer (10 mM HEPES, 137 mM NaCl, 2.68 mM KCl, 0.42 mM NaH2PO4, 1.7 mM MgCl2, 5 mM D-glucose, pH 6.5). Prostacyclin (PGI2, 10 ng/mL) was added to prevent platelet activation during the subsequent washing step. Platelets were spun down and resuspended in a small volume of HEPES-Tyrode buffer. This platelet suspension was diluted in HEPES buffer at pH 7.4, or in TTP plasma. […]
Endothelial cells were isolated from freshly obtained human umbilical cords by collagenase digestion of the interior of the umbilical vein. […] These ULvWF-adhered platelets appear as so-called ‘strings’, which are visible when the perfusion experiment is monitored by real-time video microscopy (FIG. 41). […]

[2] = system: cyclic flow reductions (CFRs) in injured, stenosed femoral artery; experiment: Use of vWF as an antidote for ALX-0081 in the baboon Folts model; type: in vivo, baboon (Papio ursinus)
Source text: The experimental procedure followed the original Folts model with the modifications as described in the previous example 18.
Healthy male baboons (Papio ursinus) were used in this study. The animals were 9-12 kg of weight and were disease-free for at least 2 weeks prior to use. The baboons were fed with dry standard food only.

[3] = system: ristocetin-induced platelet aggregation; experiment: Ristocetin-induced platelet aggregation (RIPA) ex vivo in blood of treated baboons
Method: Platelet aggregations were performed on a Chronolog whole blood and optical Aggregometer (Model 560CA, Chronolog, USA). PRP was prepared (collected on 0.38 mol/L citrate), by centrifuging the whole blood at 1200 rpm for 5 minutes. The upper fraction containing the PRP was carefully removed. The lower fraction was further centrifuged at 3000 rpm for 10 minutes to prepare platelet poor plasma (PPP). Platelets were counted in PRP and diluted in PPP to a final concentration of 200.000 platelets per microliter. 3 mg/ml ristocetin (DAKO) was added and aggregation was measured.
The GPIb-IX-V dependent platelet aggregation through vWF is measured using ristocetin as a modulator. The % aggregation is measured at each time point and at each dose.

[4] = system: cyclic flow reductions (CFRs) in injured, stenosed femoral artery; experiment: Folts thrombosis model in baboons: length/inhibition of cyclic flow reductions (CFRs); type: in vivo, baboon (Papio ursinus); conditions: for Length of CFRs: individual baboons 16-24; for effective dose: Folts model
[5] = system: ADAMTS-13; experiment: Cleavage of recombinant A1-A2-A3 vWF fragment by ADAMTS-13 (Western Blot); type: biochemical, human; conditions: 10 μg/ml; normal pool plasma
Method: In a second type of experiment, different reaction mixtures were prepared as summarized in table 60, however, without the addition of the A1A2A3 construct. The A1A2A3 construct is a recombinant fragment consisting out of the A1, A2 and A3 domain of vWF. Mixtures were pre-incubated for 5 minutes at 37° C. after which the A1A2A3 fragment is added and the mixture is incubated in a waterbath overnight at 37° C. […] The blot was blocked for 2 hours at room temperature with blockbuffer (1:1 Odyssey blockbuffer in 1×TBS pH=7.4) and incubated with Rabbit polyclonal anti-vWF (DAKO). Alexa Fluor 680 goat anti-rabbit was used for detection. Scanning was done on the ODYSSEY to detect the degradation products.
In a second assay, a recombinant fragment containing the A1-A2-A3 domain of vWF was mixed with normal pool plasma (NPP) containing ADAMTS-13, resulting in proteolytic cleavage of the fragment which was observed by a Western Blot analysis.

[6] = system: cyclic flow reductions (CFRs) in injured, stenosed femoral artery; experiment: Folts model in baboons: Aspegic-Heparin-Plavix combination with ALX-0081 on top; type: in vivo, baboon (Papio ursinus)
Method: Extra Heparin was administered at different time points to sustain a certain level (aPTT should be at least doubled versus control). […] The anti-thrombotic effect was quantified by comparing the length of CFRs before and after drug administration. When full inhibition of CFRs was observed, a new injury was applied. Epinephrin was injected and continued till the end of the experiment. […] (1), 3, 10 or 30 μg/kg. […] The specifications of the baboons that were used in this study are represented in table 49.

[7] = number of experiments with inhibition / total number of independent repeats

Substance: ALX-0081: ALX-0081 (SEQ ID NO:98), Nanobody; humanised bivalent nanobody with the 3a linker
- string formation of platelets on ULvWF [1]: complete inhibition of string formation
- Length of CFRs ([2]; 30 μg/kg + 45 μg/kg/hour ALX-0081, baboons 1-3): >1800 s
- dose at which full inhibition of CFRs was obtained ([2]; all three baboons, bolus followed by 45 μg/kg/hour): 0.03 mg/kg
- CFRs upon a new injury ([2]; at 30 μg/kg+45 μg/kg/hour ALX-0081): the CFRs did not return
- relation between RIPA and the length of the CFRs ([3]; 3 mg/ml ristocetin): inverse relation
- dose for full inhibition in RIPA versus full inhibition of CFRs ([3]; baboons 16, 18, 19 and 23): full inhibition in the RIPA test is obtained at lower doses than full inhibition of CFRs
- Length of CFRs ([4]; ALX-0081-treated, after Epinephrin): >1200 s (2×) and >900 s (7×)
- Length of CFRs ([4]; ALX-0081 final dose 3 μg/kg): 295 s and 193 s and 144 s and 133 s and 183 s and 312 s and 112 s
- Length of CFRs ([4]; ALX-0081 final dose 13 μg/kg): 380 s and 913 s and >1800 s (2×) and 298 s and 237 s and 620 s and 525 s and 213 s
- Length of CFRs ([4]; ALX-0081 final dose 43 μg/kg): >1800 s
- Length of CFRs ([4]; ALX-0081 final dose 133 μg/kg): >1800 s
- effective dose [4]: 30 µg/kg
- effective dose ([4]; inhibition of CFRs, final dose, ALX-0081: + […] dose/kg/hour): 13-43 μg/kg +
- final dose at which full inhibition of CFRs was obtained ([4]; all baboons (nine)): 0.043 mg/kg
- dose at which full inhibition of CFRs was obtained ([4]; all baboons (nine), bolus followed by 45 μg/kg/hour infusion): 0.03 mg/kg
- dose at which full inhibition of CFRs was already obtained ([4]; baboons 17 and 22, bolus followed by 15 μg/kg/hour infusion): 0.01 mg/kg
- CFRs upon a new injury ([4]; new injury applied at full inhibition of CFRs): Inhibition was retained
- Inhibition of CFRs [4, 7]: 9/9
- Inhibition of CFRs after administration of Epinephrin [4, 7]: 9/9
- Inhibition of CFRs after new injury [4, 7]: 9/9
- effect on the cleavage of the A1-A2-A3 vWF fragment by ADAMTS-13 [5]: no effect
- CFRs upon a new injury ([6]; at the effective dose of ALX-0081 on top of the combination): the CFRs did not return
- dose at which full inhibition of the CFRs was obtained ([6]; on top of Aspegic, Heparin, Plavix, continued Epinephrin infusion, all seven baboons): 0.03 mg/kg
- Length of CFRs ([6]; on top of Aspegic/Heparin/Plavix combination: Epinephrin + effective dose ALX-0081, individual baboons 4-10): >1800 s
